Measurements taken from article PMC8800111 (The Journal of Biological Chemistry, 2021).

How the values were obtained:
Type in all cases: cell-based
[1] = target: proteins of U3A human fibrosarcoma cells (4462 proteins detected) (Homo sapiens, UniProt Q9NPF4); settings: protein OSGEP; soluble abundance after heat, U3A cells
[2] = target: proteins of U3A human fibrosarcoma cells (4462 proteins detected) (Homo sapiens, UniProt Q8TD30); settings: protein GPT2; U3A cells
[3] = target: proteins of U3A human fibrosarcoma cells (4462 proteins detected) (Homo sapiens, UniProt P05121); settings: protein SERPINE1; U3A cells
[4] = target: proteins of U3A human fibrosarcoma cells (4462 proteins detected) (Homo sapiens, UniProt Q9NRN7); settings: protein AASDHPPT; U3A cells
[5] = target: proteins of U3A human fibrosarcoma cells (4462 proteins detected) (Homo sapiens, UniProt O00231); settings: protein PSMD11; U3A cells
[6] = target: proteins of U3A human fibrosarcoma cells (4462 proteins detected) (Homo sapiens, UniProt Q16891); settings: protein IMMT; U3A cells
[7] = target: proteins of U3A human fibrosarcoma cells (4462 proteins detected) (Homo sapiens, UniProt Q9UPN9); settings: protein TRIM33; U3A cells
[8] = target: proteins of U3A human fibrosarcoma cells (4462 proteins detected) (Homo sapiens, UniProt Q9BT78); settings: protein COPS4; U3A cells
[9] = target: proteins of U3A human fibrosarcoma cells (4462 proteins detected) (Homo sapiens, UniProt P05023); settings: protein ATP1A1; U3A, 10 μM, 2 h
[10] = target: proteins of U3A human fibrosarcoma cells (4462 proteins detected) (Homo sapiens, UniProt Q9Y6D5); settings: protein ARFGEF2; U3A cells
[11] = target: proteins of U3A human fibrosarcoma cells (4462 proteins detected) (Homo sapiens, UniProt Q9NTZ6); settings: protein RBM12; soluble abundance after heat, U3A cells
[12] = target: proteins of U3A human fibrosarcoma cells (4462 proteins detected) (Homo sapiens, UniProt P43243); settings: protein MATR3; soluble abundance after heat, U3A cells
[13] = target: proteins of U3A human fibrosarcoma cells (4462 proteins detected) (Homo sapiens, UniProt Q9Y5A9); settings: protein YTHDF2; U3A cells
[14] = target: proteins of U3A human fibrosarcoma cells (4462 proteins detected) (Homo sapiens, UniProt P49840); settings: protein GSK3A; U3A cells
[15] = target: proteins of U3A human fibrosarcoma cells (4462 proteins detected) (Homo sapiens, UniProt Q6P3W7); settings: protein SCYL2, U3A cells
[16] = target: proteins of U3A human fibrosarcoma cells (4462 proteins detected) (Homo sapiens, UniProt Q16576); settings: protein RBBP7; soluble abundance after heat, U3A cells
[17] = target: proteins of U3A human fibrosarcoma cells (4462 proteins detected) (Homo sapiens, UniProt Q9UKX7); settings: protein NUP50; soluble abundance after heat, U3A cells
[18] = target: proteins of U3A human fibrosarcoma cells (4462 proteins detected) (Homo sapiens, UniProt O95218); settings: protein ZRANB2, U3A cells
[19] = target: proteins of U3A human fibrosarcoma cells (4462 proteins detected) (Homo sapiens, UniProt O14964); settings: protein HGS; U3A cells
[20] = target: proteins of U3A human fibrosarcoma cells (4462 proteins detected) (Homo sapiens, UniProt Q9UH65); settings: protein SWAP70; soluble abundance after heat, U3A cells
[21] = target: proteins of U3A human fibrosarcoma cells (4462 proteins detected) (Homo sapiens, UniProt Q8TED0); settings: protein UTP15; U3A cells
[22] = target: proteins of U3A human fibrosarcoma cells (4462 proteins detected) (Homo sapiens, UniProt Q969G3); settings: protein SMARCE1, U3A cells
[23] = target: proteins of U3A human fibrosarcoma cells (4462 proteins detected) (Homo sapiens, UniProt O14828); settings: protein SCAMP3; soluble abundance after heat, U3A cells
[24] = target: proteins of U3A human fibrosarcoma cells (4462 proteins detected) (Homo sapiens, UniProt Q8WW12); settings: protein PCNP, U3A cells
[25] = target: proteins of U3A human fibrosarcoma cells (4462 proteins detected) (Homo sapiens, UniProt Q9H8M7); settings: protein FAM188A, U3A cells
[26] = target: proteins of U3A human fibrosarcoma cells (4462 proteins detected) (Homo sapiens, UniProt P26447); settings: protein S100A4; U3A, 10 μM, 2 h
[27] = target: proteins of U3A human fibrosarcoma cells (4462 proteins detected) (Homo sapiens, UniProt Q6YHU6); settings: protein THADA; soluble abundance after heat, U3A cells
[28] = target: proteins of U3A human fibrosarcoma cells (4462 proteins detected) (Homo sapiens, UniProt Q9HB71); settings: protein CACYBP; U3A cells
[29] = target: proteins of U3A human fibrosarcoma cells (4462 proteins detected) (Homo sapiens, UniProt Q6PD74); settings: protein AAGAB; U3A cells
[30] = target: proteins of U3A human fibrosarcoma cells (4462 proteins detected) (Homo sapiens, UniProt P48556); settings: protein PSMD8; U3A cells

Chain of proteins of U3A human fibrosarcoma cells (4462 proteins detected) (Homo sapiens, UniProt Q9UPN9) (Q9UPN9 whole entry): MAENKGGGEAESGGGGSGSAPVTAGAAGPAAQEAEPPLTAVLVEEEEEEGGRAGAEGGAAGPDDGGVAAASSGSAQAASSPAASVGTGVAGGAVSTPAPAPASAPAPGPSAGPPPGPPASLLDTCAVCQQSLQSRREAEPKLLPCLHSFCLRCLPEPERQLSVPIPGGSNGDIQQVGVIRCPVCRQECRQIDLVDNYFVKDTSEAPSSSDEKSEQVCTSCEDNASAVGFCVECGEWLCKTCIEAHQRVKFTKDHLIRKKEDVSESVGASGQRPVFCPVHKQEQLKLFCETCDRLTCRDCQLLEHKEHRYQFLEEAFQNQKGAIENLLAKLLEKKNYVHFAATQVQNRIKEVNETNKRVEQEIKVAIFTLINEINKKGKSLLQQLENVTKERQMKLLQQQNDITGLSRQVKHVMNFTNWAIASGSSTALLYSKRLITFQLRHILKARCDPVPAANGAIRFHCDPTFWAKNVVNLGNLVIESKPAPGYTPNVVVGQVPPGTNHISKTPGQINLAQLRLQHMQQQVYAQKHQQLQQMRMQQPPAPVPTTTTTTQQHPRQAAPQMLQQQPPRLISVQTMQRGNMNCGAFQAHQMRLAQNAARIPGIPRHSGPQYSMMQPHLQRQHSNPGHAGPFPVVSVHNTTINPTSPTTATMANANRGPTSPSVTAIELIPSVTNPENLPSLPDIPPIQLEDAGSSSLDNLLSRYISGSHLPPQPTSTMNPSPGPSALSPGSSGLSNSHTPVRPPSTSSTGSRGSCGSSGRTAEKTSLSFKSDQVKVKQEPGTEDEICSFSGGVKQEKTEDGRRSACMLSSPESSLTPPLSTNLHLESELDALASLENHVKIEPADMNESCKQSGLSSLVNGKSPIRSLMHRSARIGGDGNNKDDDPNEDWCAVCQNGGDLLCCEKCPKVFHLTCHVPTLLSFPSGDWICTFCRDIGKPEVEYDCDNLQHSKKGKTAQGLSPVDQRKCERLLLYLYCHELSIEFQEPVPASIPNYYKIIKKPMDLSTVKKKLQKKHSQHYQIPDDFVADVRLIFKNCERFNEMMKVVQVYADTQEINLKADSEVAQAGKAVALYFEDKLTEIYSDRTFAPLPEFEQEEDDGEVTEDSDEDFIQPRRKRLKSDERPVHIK
Chain of proteins of U3A human fibrosarcoma cells (4462 proteins detected) (Homo sapiens, UniProt Q9HB71) (Q9HB71 whole entry): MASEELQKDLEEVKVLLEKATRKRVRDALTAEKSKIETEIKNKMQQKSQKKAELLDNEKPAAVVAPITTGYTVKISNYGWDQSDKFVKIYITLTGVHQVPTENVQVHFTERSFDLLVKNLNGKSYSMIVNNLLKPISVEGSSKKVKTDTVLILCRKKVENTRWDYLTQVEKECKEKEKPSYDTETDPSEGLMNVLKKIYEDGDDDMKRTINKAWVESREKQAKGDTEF
Chain of proteins of U3A human fibrosarcoma cells (4462 proteins detected) (Homo sapiens, UniProt Q9Y5A9) (Q9Y5A9 whole entry): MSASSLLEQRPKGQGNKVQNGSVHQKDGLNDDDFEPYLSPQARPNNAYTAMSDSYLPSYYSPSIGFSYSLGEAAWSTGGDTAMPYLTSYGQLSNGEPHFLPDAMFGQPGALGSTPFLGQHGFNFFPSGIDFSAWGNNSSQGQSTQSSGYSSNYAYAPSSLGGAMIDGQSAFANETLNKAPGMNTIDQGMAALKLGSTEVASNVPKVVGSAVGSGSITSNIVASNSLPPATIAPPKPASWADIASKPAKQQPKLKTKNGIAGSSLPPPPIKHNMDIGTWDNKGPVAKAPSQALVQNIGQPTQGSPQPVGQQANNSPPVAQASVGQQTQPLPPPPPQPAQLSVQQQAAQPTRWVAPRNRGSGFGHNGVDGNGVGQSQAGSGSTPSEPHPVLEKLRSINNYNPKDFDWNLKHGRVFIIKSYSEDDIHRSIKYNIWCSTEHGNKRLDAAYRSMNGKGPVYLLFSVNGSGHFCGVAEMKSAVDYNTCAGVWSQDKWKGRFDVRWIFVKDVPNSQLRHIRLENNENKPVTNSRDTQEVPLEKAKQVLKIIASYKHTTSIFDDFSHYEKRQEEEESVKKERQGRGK
Chain of proteins of U3A human fibrosarcoma cells (4462 proteins detected) (Homo sapiens, UniProt O14964) (O14964 whole entry): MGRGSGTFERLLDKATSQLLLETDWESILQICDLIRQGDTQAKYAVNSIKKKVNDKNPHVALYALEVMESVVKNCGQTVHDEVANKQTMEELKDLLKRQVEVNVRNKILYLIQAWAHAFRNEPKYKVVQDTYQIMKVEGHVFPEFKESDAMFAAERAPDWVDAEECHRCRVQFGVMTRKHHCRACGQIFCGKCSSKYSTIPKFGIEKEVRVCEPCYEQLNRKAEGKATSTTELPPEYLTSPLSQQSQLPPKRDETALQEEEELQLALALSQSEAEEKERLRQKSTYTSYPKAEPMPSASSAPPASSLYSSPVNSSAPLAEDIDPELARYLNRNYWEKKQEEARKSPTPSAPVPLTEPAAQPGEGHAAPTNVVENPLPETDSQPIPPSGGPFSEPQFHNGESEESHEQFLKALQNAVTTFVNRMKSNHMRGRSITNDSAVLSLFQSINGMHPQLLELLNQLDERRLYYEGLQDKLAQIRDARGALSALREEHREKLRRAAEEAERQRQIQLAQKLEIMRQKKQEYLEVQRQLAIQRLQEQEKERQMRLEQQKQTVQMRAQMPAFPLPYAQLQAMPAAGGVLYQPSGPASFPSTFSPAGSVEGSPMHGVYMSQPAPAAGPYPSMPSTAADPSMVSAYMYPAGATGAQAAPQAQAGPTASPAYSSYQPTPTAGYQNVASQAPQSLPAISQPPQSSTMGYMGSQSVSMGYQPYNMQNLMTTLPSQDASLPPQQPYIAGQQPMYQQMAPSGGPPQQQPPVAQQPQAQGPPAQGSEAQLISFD
Chain of proteins of U3A human fibrosarcoma cells (4462 proteins detected) (Homo sapiens, UniProt Q6YHU6) (Q6YHU6 whole entry): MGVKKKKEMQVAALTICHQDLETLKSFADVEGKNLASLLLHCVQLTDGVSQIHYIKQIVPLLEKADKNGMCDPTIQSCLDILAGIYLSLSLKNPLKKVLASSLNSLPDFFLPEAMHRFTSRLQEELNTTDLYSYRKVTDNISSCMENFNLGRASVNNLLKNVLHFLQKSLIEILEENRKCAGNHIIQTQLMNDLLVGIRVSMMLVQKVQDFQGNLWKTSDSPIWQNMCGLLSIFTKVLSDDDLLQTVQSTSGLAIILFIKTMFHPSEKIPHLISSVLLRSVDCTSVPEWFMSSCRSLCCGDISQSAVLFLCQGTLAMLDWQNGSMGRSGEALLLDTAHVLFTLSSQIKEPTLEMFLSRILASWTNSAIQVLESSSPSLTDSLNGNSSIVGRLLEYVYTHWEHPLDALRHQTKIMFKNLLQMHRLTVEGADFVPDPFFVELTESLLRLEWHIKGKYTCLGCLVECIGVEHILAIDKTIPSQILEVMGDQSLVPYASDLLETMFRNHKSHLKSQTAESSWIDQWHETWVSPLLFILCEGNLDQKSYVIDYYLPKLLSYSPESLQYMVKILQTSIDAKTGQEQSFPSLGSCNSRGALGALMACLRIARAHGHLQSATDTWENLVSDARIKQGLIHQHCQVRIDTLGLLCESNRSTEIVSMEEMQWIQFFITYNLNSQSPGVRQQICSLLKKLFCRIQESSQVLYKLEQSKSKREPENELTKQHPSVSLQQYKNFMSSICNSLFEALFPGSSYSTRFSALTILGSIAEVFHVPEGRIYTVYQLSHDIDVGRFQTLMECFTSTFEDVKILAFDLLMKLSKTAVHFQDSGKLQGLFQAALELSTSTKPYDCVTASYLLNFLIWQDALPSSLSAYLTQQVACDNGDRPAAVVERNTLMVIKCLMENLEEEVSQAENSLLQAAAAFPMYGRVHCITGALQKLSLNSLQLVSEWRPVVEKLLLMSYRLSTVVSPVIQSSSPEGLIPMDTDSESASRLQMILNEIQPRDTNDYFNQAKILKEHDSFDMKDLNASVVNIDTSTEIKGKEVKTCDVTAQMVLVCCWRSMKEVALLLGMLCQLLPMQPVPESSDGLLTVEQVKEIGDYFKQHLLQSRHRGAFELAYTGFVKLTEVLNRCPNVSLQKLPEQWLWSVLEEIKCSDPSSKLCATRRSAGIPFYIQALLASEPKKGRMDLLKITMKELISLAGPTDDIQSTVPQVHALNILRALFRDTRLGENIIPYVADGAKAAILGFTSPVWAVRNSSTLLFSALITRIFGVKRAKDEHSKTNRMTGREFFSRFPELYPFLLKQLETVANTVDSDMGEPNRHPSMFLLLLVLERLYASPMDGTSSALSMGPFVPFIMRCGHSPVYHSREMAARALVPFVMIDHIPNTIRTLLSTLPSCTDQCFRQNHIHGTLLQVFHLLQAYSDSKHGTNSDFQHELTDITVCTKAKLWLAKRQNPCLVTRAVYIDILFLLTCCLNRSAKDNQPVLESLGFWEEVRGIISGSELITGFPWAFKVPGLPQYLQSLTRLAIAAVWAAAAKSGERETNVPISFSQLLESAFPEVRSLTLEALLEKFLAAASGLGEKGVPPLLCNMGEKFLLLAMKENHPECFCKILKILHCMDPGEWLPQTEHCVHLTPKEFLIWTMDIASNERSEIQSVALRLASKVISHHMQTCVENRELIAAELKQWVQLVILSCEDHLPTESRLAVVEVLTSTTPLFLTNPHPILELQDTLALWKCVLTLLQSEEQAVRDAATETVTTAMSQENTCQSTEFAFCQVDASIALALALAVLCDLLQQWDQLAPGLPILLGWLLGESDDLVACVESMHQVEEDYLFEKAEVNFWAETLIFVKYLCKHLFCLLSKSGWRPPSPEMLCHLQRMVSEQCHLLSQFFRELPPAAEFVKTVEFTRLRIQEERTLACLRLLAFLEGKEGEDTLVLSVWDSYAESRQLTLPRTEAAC
Chain of proteins of U3A human fibrosarcoma cells (4462 proteins detected) (Homo sapiens, UniProt Q6PD74) (Q6PD74 whole entry): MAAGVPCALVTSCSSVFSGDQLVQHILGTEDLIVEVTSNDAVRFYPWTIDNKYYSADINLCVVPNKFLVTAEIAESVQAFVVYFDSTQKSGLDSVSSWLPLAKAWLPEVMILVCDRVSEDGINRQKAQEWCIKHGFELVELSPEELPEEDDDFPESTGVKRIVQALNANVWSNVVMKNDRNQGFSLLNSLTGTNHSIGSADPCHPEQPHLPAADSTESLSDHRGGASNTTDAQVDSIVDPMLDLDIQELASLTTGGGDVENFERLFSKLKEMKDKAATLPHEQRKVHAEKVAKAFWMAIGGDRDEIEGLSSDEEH

CCc1nc(N)nc(N)c1-c1ccc(Cl)cc1 [pyrimethamine]
Log2 (PYR/DMSO) [1]: 0.14 | Log2 (PYR/DMSO) [2]: 0.16 | Log2 (PYR/DMSO) [3]: 0.19 | Log2 (PYR/DMSO) [4]: 0.17 | Log2 (PYR/DMSO) [5]: 0.17 | Log2 (PYR/DMSO) [6]: 0.19 | Log2 (PYR/DMSO) [7]: 0.16 | Log2 (PYR/DMSO) [8]: 0.20 | Log2 (PYR/DMSO), ATP1A1 [9]: 0.37 | Log2 (PYR/DMSO) [10]: 0.18 | Log2 (PYR/DMSO) [11]: 0.15 | Log2 (PYR/DMSO) [12]: 0.14 | Log2 (PYR/DMSO) [13]: 0.16 | Log2 (PYR/DMSO) [14]: 0.16 | Log2 (PYR/DMSO) [15]: -0.04 | Log2 (PYR/DMSO) [16]: 0.15 | Log2 (PYR/DMSO) [17]: 0.15 | Log2 (PYR/DMSO) [18]: -0.04 | Log2 (PYR/DMSO) [19]: 0.16 | Log2 (PYR/DMSO) [20]: 0.14 | Log2 (PYR/DMSO) [21]: 0.16 | Log2 (PYR/DMSO) [22]: -0.05 | Log2 (PYR/DMSO) [23]: 0.14 | Log2 (PYR/DMSO) [24]: -0.04 | Log2 (PYR/DMSO) [25]: -0.04 | Log2 (PYR/DMSO), S100A4 [26]: -0.16 | Log2 (PYR/DMSO) [27]: 0.15 | Log2 (PYR/DMSO) [28]: 0.19 | Log2 (PYR/DMSO) [29]: 0.18 | Log2 (PYR/DMSO) [30]: 0.17
